Reference: the NIST ThermoML archive (doi:10.1021/je0498208)
± gives the expanded uncertainty stated by the source.

Legend:
[1] = Liquid; for viscosity: 101 kPa; for mass density: 101.3 kPa
[2] = xn = mol fraction of the nth substance listed; conditions: Liquid, x2 = 0; for viscosity: 101 kPa; for mass density: 101.3 kPa

| Compound | viscosity ([1]; 298.15 K) [mPa·s] | viscosity ([1]; 303.15 K) [mPa·s] | viscosity ([1]; 313.15 K) [mPa·s] | viscosity ([1]; 323.15 K) [mPa·s] | mass density ([1]; 323.15 K) [kg/m3] | viscosity ([1]; 333.15 K) [mPa·s] | mass density ([1]; 333.15 K) [kg/m3] | viscosity ([1]; 343.15 K) [mPa·s] | mass density ([1]; 343.15 K) [kg/m3] | further results |
| --- | --- | --- | --- | --- | --- | --- | --- | --- | --- | --- |
| O=CN1CCOCC1 [N-formylmorpholine] | 7.87 ± 0.22 | 6.75 ± 0.2 | 5.13 ± 0.15 | 4.03 ± 0.12 | 1124.82 ± 1.2 | 3.25 ± 0.1 | 1116.11 ± 1.1 | 2.68 ± 0.08 | 1107.39 ± 1.1 | mass density ([1]; 298.15 K): 1146.62 ± 1.2 kg/m3; mass density ([1]; 303.15 K): 1142.26 ± 1.2 kg/m3; mass density ([1]; 313.15 K): 1133.53 ± 1.2 kg/m3 |
| O [water] | 0.89 ± 0.027 | 0.7976 ± 0.025 | 0.6531 ± 0.02 | 0.547 ± 0.017 | 988.04 ± 0.13 | 0.466 ± 0.015 | 983.12 ± 0.13 | 0.4049 ± 0.013 | 977.77 ± 0.13 |  |
| O [water] + O=CN1CCOCC1 |  |  |  |  |  |  |  |  |  | viscosity ([2]; 298.15 K): 0.89 ± 0.027 mPa·s; viscosity ([2]; 303.15 K): 0.7976 ± 0.025 mPa·s; viscosity ([2]; 313.15 K): 0.6531 ± 0.02 mPa·s; viscosity ([2]; 323.15 K): 0.547 ± 0.017 mPa·s; mass density ([2]; 323.15 K): 988.04 ± 0.13 kg/m3; viscosity ([2]; 333.15 K): 0.466 ± 0.015 mPa·s; mass density ([2]; 333.15 K): 983.12 ± 0.13 kg/m3; viscosity ([2]; 343.15 K): 0.4049 ± 0.013 mPa·s; mass density ([2]; 343.15 K): 977.77 ± 0.13 kg/m3 |
